The values below come from publication PMC10053369, “Recombinant Analogs of Sea Anemone Kunitz-Type Peptides Influence P2X7 Receptor Activity in Neuro-2a Cells” (Marine Drugs, 2023).

Assay [1] relates to Neuro-2a cells. Nature of the assay: Cytoprotection against ATP-induced cell death (MTT assay). The format is cell-based, mouse. On the procedure:
(§1) Neuro-2a neuroblastoma cells (ATCC® CCL-131™) were obtained from American Type Culture Collection (Manassas, VA, USA). The cells were cultivated in DMEM medium (BioloT, St. Petersburg, Russia) supplemented with 10% of fetal bovine serum (BioloT, St. Petersburg, Russia) and 1% penicillin/streptomycin (BioloT, St. Petersburg, Russia) at 37 °C and 5% CO2. Initially, cells were incubated in cultural flasks until sub-confluent (~80%). For testing, Neuro-2a cells were seeded in 96-well plates and experiments were started after 24 h.
The cytoprotective effect of peptides was assessed in Neuro-2a cells using the MTT assay. In brief, an aliquot (180μL) of cell suspension with a nominal cell density of 3 × 10^4 cells/well was dispensed into 96-well plates. The cells were incubated for 24 h in a humidified atmosphere containing 5% CO2 to allow cell attachment. At the end of the preincubation period, ATP (Sigma-Aldrich, St. Louis, MO, USA) was added to the cells at a concentration of 4 mM. Studied peptides were added to the cells at concentrations of 0.1, 1.0 or 10.0 μM for 1h prior to the addition of ATP. After incubation for 48 h at 37 °C cell viability was detected using the MTT as described previously. The standard P2X7 inhibitor, A438079 (Sigma-Aldrich, St. Louis, MO, USA), at a concentration of 10 μM was used as a positive control.
(§2) All data were obtained in three independent replicates and calculated values were expressed as mean ± standard error of the mean (SEM). The Student’s t-test was performed using SigmaPlot 14.0 (Systat Software Inc., San Jose, CA, USA) to determine statistical significance.

Assay [2] has as its system P2X7 in Neuro-2a cells. Nature of the assay: ATP-induced YO-PRO-1 uptake (P2X7 pore formation). In kind it is cell-based, mouse. The procedure:
as §1
Neuro-2a cells were seeded in 96 well plates at a density of 4 × 10^4 cells/well and incubated in DMEM for 24 h, 37 °C, 5% CO2. Then the cells were washed once with HBSS and filled with 180 μL of the same buffer. YO-PRO-1 (Sigma-Aldrich, St. Louis, MO, USA, 5 μM final concentration) was loaded into the wells, the cells were incubated for 15 min at 37 °C. Further, the studied peptides were added to the cells at concentrations of 10, 1, 0.1 and 0.01 μM and incubated for 10 min at 37 °C. After that ATP (4 mM final concentration) was added and the plates were incubated for an additional 10 min. The standard P2X7R inhibitor, A438079 (Sigma-Aldrich, St. Louis, MO, USA), was used as inhibitory control. Then the cells were washed three times with the buffer solution and fluorescence intensity was measured with PHERAstar FS plate reader (BMG, LABTECH, Ortenberg, Germany) at λex = 485 nm and λem= 520 nm in the “End Point” mode. The effectiveness of compounds was evaluated relative to control without ATP.
as §2

The conditions of assay [3]: intrathecal; hind paw ipsilateral to the nerve injury; cited from earlier work. The text has this: (§3) Activated P2X7 has also been reported to alter reactive oxygen species (ROS) in microglia/macrophages as was shown, for example, in primary rat microglial cells. In cultured neurons of the dorsal horn of the spinal ...
Assay [4] has as its system cultured neurons of the dorsal horn of the spinal cord. Conditions: cited from earlier work.
Text: as §3

Assay [5] has as its system pancreatic ductal adenocarcinoma cells. Conditions: ref [31]; cited from earlier work.
The test system of assay [6] is spontaneously hypertensive rats. The conditions noted are these: intracerebroventricular; ref [8]; cited from earlier work.
Text: as §3

Assay [7] relates to P2X7 in Neuro-2a cells. The assay is described as follows: ATP-induced Ca2+ influx (Fluo-8 AM). Conditions: for reduction of calcium level: 30 min pre-incubation, 1 mM ATP. In kind it is cell-based, mouse. The procedure: as §1
Neuro-2a cells were seeded in 96-well plates at a density of 4 × 10^4 cells/well and incubated in DMEM for 24 h at 37 °C, 5% CO2. Then the cells were washed twice with culture medium and loaded with 5 μM Fluo-8 AM (Abcam, Cambridge, UK) dye and 1 μM Pluronic® F-127 (Sigma-Aldrich, St. Louis, MO, USA), and incubated for 40 min at 37 °C in HBSS: 140 mM NaCl, 5 mM KCl, 0.8 mM MgCl2, 2 mM CaCl2, 10 mM glucose, 10 mM HEPES, pH 7.4. Then the cells were washed two times with the same solution but without the fluorescent dye and treated with the studied peptides for 30 min at RT in the dark. In some experiments Ca^2+-free medium was used: 140 mM NaCl, 5 mM KCl, 0.8 mM MgCl2, 10 mM glucose, 10 mM HEPES, 5 mM EGTA, pH 7.4. ATP (1 mM final concentration) was added using a microinjector (20 μL/well) 10 s later the baseline recording and the readings were taken up to 50 s in 1 s intervals. The standard P2X7 inhibitor, A438079 (Sigma-Aldrich, St. Louis, MO, USA), was used as inhibitory control. Ionomycin (Sigma-Aldrich, St. Louis, MO, USA) and BHQ were used to generate a generic calcium signal in cells. 2,5,-di(t-butyl) hydroquinone (BHQ) was synthesized and kindly provided by Dr. Polonik S.N. (PIBOC FEBRAS). Fluo-8 was excited at 485 nm, and the emission at 520 nm was measured with a PHERAstar®FS plate reader (BMG LABTECH, Ortenberg, Germany). The data were processed by MARS Data Analysis v. 3.01R2 (BMG Labtech, Ortenberg, Germany). Mean values and standard error of peak height calcium were calculated.
as §2

Assay [8] has as its target TRPV1 receptor. The conditions noted are these: modulator of TRPV1, depends on nature and strength of activation stimuli; ref [14],[17],[18],[21],[38],[39],[40]; cited from earlier work. The text has this:
(§4) The studied peptides are analogs of sea anemone Kunitz-type peptides and attract our attention due to their wide spectrum of biological activity and ability to interact with important molecular targets.

For assay [9] the following is noted: ref [14],[17],[18],[21],[38],[39],[40], cited from earlier work.
Text: as §4

For `Clc1cccc(-c2nnnn2Cc2cccnc2)c1Cl` [A438079, reference compound], in [1] (pre-incubation with 10 μM A438079, then 4 mM ATP, 48 h, mean ± SE, n = 3), the “increase in cell viability compared with ATP alone” value was 18.2 ± 2.8%. In [2] (10 μM A438079 pre-incubation, 4 mM ATP, mean ± SE, n = 3), the “inhibition of YO-PRO-1 dye penetration vs ATP alone” value was “up to 32%”. For the same compound, the “ATP-induced uptake of YO-PRO-1” value in assay [2] (0.01–10 μM peptides or 10 μM A438079, 10 min pre-incubation, 4 mM ATP) is reported as “attenuated dye accumulation”. Also, the “mechanical hypersensitivity” value in assay [3] is “suppressed the development of mechanical hypersensitivity”. For the same compound, the “ATP or Bz-ATP-induced ROS production” value in assay [4] is recorded as “eliminated”. Moreover, the “ATP-induced pore formation and cell death” value in [5] is “very modest effects on ATP-induced pore formation and cell death”.
For the compound `Cc1nc(N=Nc2ccc(S(=O)(=O)O)cc2S(=O)(=O)O)c(COP(=O)(O)O)c(C=O)c1O` [PPADS], in assay [6], the “infarct volume and number of irreversibly damaged cells” value is “reduced infarct volume and the number of irreversibly damaged cells”.
Consider “APHC3: recombinant Kunitz-type peptide from H. magnifica (=H. crispa), UniProtKB C0HJF3 (GSICLEPKVVGPCTAYFPRFYFNSETGKCTPFIYGGCEGNGNNFETLRACRGICRA; left off: thioredoxin, end not stated, cleaved)”, for which, in [1] (long-time application of ATP (4 mM, 48 h)), the “protection from ATP-induced death” value is given as “partially protected neuroblastoma cells from ATP-induced death”. In addition, the “reduction of calcium level” value in [7] (0.1 μM peptide, mean ± SE, n = 3) was 53.2 ± 24.95%; in [7] (0.1–10 μM peptide), “significantly reduced the calcium level”. Besides, the “effect on Ca2+ influx (summary in discussion)” value in [7] (short-term effect) is on record as “a significant effect on Ca^2+ influx into cells”. Besides, the “entry of YO-PRO-1 into cells (summary in discussion)” value in assay [2] (short-term effect) was “regulating the entry of low molecular weight fluorescent dye YO-PRO-1 into cells”. Besides, the EC50 in [8] is ~0.018 µM. In addition, in assay [9] (ex vivo and in vivo), the “activity in models of inflammatory diseases” value is “potent activity”. In addition, the “anti-inflammatory and analgesic activity” value in [9] is “significant anti-inflammatory and analgesic activity”.
